Like-named read-outs stand apart in the source and are kept apart here. Where a SMILES comes first, the peptide text is derived from it.
Columns and labels:
HUVECs [1] = assay: Cytotoxic assay (MTT) on HUVECs; assay type: cell-based, human; conditions: 50–200 μM, 24 h
Method: The cytotoxic assay was carried out as per the previous method ([54]). HUVECs were cultured at a density of 1 × 10^4 cells/cm^2 to confluence in DMEM at 37°C in a humidified 5% CO2 atmosphere ([8]). The cytotoxicity of TP1–TP10 on HUVECs was measured using MTT assay ([8]). In short, HUVECs in 96-well plates at a density of 1 × 10^4 cells/cm^2 were separately treated with 20 μL samples at 50 and 200 μM, respectively, and cultured for 24 h. Then, 20 μL MTT solution (5 mg/mL) was put in and incubated for 4 h. In the end, DMSO was joined in each well plate, and the absorbance (A) at 490 nm was determined.
Cell viability(%)= (Asample/Acontrol) × 100.

H2O2-damaged HUVECs [2] = assay: GSH-Px level in H2O2-damaged HUVECs; assay type: cell-based, human; conditions: then H2O2 400 μM for 24 h, mean ± SD, n = 3
Method: (§1) The cytoprotective assay was carried out using the described methods ([55], [56]). In short, HUVECs were cultured in a 96-well plate at a density of 1 × 10^4 cells/cm^2 for 24 h. Afterward, the supernatant was aspirated, and 20 μL of ACEi peptides (TP6, TP7, and TP10) with the final concentrations of 100 and 200 μM were added to the protection groups, respectively. […] GSH was used as the positive control.
(§2) The level of ROS was determined on the method described by Cai et al. ([55]) and expressed as % of blank control; the levels of MDA, SOD, and GSH-Px were measured using assay kits in accordance with the manufacturer' protocols and expressed as U/mg prot.

H2O2-damaged HUVECs [3] = assay: SOD level in H2O2-damaged HUVECs; assay type: cell-based, human; conditions: then H2O2 400 μM for 24 h, mean ± SD, n = 3
Method: as §1, §2

H2O2-damaged HUVECs [4] = assay type: cell-based, human
Method: The cytotoxic assay was carried out as per the previous method ([54]). […] Then, 20 μL MTT solution (5 mg/mL) was put in and incubated for 4 h. In the end, DMSO was joined in each well plate, and the absorbance (A) at 490 nm was determined. Cell viability(%)= (Asample/Acontrol) × 100. The cytoprotective assay was carried out using the described methods ([55], [56]). In short, HUVECs were cultured in a 96-well plate at a density of 1 × 10^4 cells/cm^2 for 24 h. […] GSH was used as the positive control.

HUVECs [5] = assay: Endothelin-1 (ET-1) secretion in HUVECs; assay type: cell-based, human; conditions: 24 h, mean ± SD, n = 3
Method: (§3) HUVECs were cultured in 96-well plates at a density of 1 × 10^4 cells/cm^2 and treated with Cap (1 μM), NE (0.5 μM), or ACEi peptides (100–200 μM) for 24 h, or incubated with both NE (0.5 μM) and 200 μM ACEi peptides for 24 h. NO and ET-1 contents of HUVECs were determined after 24 h according to the NO and ET-1 assay kits as manufactures' protocol ([54]).

H2O2-damaged HUVECs [6] = assay: MDA level in H2O2-damaged HUVECs; assay type: cell-based, human; conditions: then H2O2 400 μM for 24 h, mean ± SD, n = 3
Method: as §1, §2

HUVECs [7] = assay: Nitric oxide (NO) production in HUVECs; assay type: cell-based, human; conditions: 24 h, mean ± SD, n = 3
Method: as §3

ACE = ACE (Oryctolagus cuniculus, UniProt G1TYT4); conditions: cited from earlier work
[8] = biological target: T1, Angiotensin-converting enzyme (ACE) (UniProt P12822)
T1 sequence: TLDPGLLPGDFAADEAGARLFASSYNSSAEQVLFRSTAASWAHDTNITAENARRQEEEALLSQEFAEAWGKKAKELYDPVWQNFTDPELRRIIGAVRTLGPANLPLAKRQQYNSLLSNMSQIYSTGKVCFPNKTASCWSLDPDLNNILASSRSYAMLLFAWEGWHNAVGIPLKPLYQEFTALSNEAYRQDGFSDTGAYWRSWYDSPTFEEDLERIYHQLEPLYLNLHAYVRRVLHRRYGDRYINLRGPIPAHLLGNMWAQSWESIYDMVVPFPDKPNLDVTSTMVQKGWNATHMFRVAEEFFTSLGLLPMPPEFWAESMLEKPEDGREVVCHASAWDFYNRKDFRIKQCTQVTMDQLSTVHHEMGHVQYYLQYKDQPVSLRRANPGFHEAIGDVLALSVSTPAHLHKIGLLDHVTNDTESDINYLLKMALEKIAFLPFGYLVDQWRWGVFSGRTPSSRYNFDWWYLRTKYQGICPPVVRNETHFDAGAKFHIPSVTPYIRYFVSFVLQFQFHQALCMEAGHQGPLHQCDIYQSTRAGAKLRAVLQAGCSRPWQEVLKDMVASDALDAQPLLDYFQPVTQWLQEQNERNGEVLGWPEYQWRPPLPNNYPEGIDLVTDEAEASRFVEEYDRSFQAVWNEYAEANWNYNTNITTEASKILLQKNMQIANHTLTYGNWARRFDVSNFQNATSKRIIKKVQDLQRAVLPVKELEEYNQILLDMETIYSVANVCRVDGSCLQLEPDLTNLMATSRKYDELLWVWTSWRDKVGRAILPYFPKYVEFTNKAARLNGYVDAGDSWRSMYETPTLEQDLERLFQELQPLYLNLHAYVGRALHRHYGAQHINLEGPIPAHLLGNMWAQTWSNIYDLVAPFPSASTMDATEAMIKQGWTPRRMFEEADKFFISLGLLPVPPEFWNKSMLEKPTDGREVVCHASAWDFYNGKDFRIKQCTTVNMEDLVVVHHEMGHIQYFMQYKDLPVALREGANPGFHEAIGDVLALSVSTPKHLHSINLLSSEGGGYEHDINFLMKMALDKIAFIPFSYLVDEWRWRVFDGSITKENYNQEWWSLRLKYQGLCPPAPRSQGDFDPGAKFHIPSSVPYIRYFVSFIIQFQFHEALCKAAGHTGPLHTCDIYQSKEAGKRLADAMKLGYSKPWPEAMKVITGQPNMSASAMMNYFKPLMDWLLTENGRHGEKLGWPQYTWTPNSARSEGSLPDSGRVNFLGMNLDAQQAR

[9] = NE 0.5 μM together with peptide 200 μM

ACE, sequence (G1TYT4 1-1284): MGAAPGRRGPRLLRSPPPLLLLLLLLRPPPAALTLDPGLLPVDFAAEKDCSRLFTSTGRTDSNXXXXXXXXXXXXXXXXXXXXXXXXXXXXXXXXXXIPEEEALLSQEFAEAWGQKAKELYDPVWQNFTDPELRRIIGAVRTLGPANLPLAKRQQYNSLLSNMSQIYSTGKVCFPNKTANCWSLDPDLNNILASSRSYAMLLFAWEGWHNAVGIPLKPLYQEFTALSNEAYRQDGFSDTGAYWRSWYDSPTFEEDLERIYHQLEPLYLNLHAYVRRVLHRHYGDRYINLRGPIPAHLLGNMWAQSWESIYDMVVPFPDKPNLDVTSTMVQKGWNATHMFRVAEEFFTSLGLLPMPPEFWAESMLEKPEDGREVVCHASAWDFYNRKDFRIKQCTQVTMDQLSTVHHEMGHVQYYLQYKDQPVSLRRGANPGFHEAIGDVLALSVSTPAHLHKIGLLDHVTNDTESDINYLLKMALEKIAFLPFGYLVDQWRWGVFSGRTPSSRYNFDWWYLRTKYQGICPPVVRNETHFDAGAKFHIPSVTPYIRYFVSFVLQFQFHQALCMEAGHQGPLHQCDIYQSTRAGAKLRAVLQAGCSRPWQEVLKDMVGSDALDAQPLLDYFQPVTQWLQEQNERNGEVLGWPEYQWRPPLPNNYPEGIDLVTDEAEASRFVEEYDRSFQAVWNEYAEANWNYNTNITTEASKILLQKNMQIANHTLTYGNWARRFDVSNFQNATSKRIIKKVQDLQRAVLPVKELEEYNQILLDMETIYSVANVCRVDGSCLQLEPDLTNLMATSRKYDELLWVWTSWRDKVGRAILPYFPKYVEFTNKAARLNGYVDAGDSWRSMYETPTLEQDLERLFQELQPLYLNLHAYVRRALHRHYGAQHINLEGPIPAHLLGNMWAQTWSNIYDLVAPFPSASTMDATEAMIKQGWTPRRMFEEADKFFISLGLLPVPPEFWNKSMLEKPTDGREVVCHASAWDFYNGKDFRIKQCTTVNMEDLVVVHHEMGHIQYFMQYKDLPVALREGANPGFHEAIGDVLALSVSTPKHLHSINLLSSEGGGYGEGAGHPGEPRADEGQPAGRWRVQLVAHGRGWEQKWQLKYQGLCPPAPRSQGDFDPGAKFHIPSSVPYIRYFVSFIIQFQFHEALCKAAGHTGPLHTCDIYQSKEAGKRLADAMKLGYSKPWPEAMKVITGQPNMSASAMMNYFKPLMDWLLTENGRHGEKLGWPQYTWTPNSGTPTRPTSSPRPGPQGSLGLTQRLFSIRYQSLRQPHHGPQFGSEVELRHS

CC(C)C[C@H](N)C(=O)N[C@@H](CO)C(=O)N[C@@H](Cc1ccccc1)C(=O)N[C@@H](CCCNC(=N)N)C(=O)O [TP7, Leu-Ser-Phe-Arg] (H-LSFR-OH)
toxicity to HUVECs (in words) (HUVECs [1]): no significant toxicity
GSH-Px level (H2O2-damaged HUVECs [2]; peptide 100 μM for 8 h): 35.61 ± 1.23 U/mg prot
GSH-Px level (H2O2-damaged HUVECs [2]; peptide 200 μM for 8 h): 40.93 ± 2.15 U/mg prot
SOD level (H2O2-damaged HUVECs [3]; peptide 100 μM for 8 h): 141.79 ± 3.96 U/mg prot
SOD level (H2O2-damaged HUVECs [3]; peptide 200 μM for 8 h): 158.79 ± 5.93 U/mg prot
cell viability of H2O2-damaged HUVECs (H2O2-damaged HUVECs [4]; 8 h, 200 μM): 59.15 ± 2.81%
ET-1 level (HUVECs [5]; [9]): 110.36 ± 1.76 pg/mL
ET-1 level (HUVECs [5]; peptide 200 μM): 101.49 ± 2.05 pg/mL
MDA level (H2O2-damaged HUVECs [6]; peptide 200 μM for 8 h): 20.68 ± 1.06 nmol/mg prot
NO level (HUVECs [7]; [9]): 35.18 ± 1.2 μmol/gprot
NO level (HUVECs [7]; peptide 200 μM): 45.91 ± 1.68 μmol/gprot

NC[C@H](O)c1ccc(O)c(O)c1 [NE, Norepinephrine, reference compound]
ET-1 secretion (HUVECs [5]; NE 0.5 μM alone): 148.35 ± 3.87 pg/mL
NO level (HUVECs [7]; NE 0.5 μM alone): 22.91 ± 1.26 μmol/gprot

CC[C@H](C)[C@H](N)C(=O)N[C@@H](Cc1ccc(O)cc1)C(=O)N[C@@H](CO)C(=O)N1CCC[C@H]1C(=O)O [TP10, Ile-Tyr-Ser-Pro] (H-IYSP-OH)
toxicity to HUVECs (in words) (HUVECs [1]): no significant toxicity
GSH-Px level (H2O2-damaged HUVECs [2]; peptide 100 μM for 8 h): 38.91 ± 1.17 U/mg prot
GSH-Px level (H2O2-damaged HUVECs [2]; peptide 200 μM for 8 h): 44.69 ± 2.09 U/mg prot
SOD level (H2O2-damaged HUVECs [3]; peptide 100 μM for 8 h): 154.35 ± 3.68 U/mg prot
SOD level (H2O2-damaged HUVECs [3]; peptide 200 μM for 8 h): 172.93 ± 6.58 U/mg prot
cell viability of H2O2-damaged HUVECs (H2O2-damaged HUVECs [4]; 8 h, 200 μM): 61.58 ± 3.04%
ET-1 level (HUVECs [5]; [9]): 109.12 ± 2.95 pg/mL
ET-1 level (HUVECs [5]; peptide 200 μM): 96.15 ± 1.35 pg/mL
MDA level (H2O2-damaged HUVECs [6]; peptide 200 μM for 8 h): 19.11 ± 0.88 nmol/mg prot
NO level (HUVECs [7]; [9]): 39.27 ± 1.96 μmol/gprot
NO level (HUVECs [7]; peptide 200 μM): 46.78 ± 2.47 μmol/gprot

OO [H2O2]
cell viability of HUVECs (% of the blank group) (H2O2-damaged HUVECs [4]; H2O2 400 μM alone, 24 h (oxidative damage model), mean ± SD, n = 3): 50.48 ± 1.96%

FRKE
IC50 on ACE (ACE; ACEi peptides from Antarctic krill): 6970 µg/mL

EHPVL
IC50 on ACE (ACE; ACEi peptide from stone fish): 1680 µg/mL

CC[C@H](C)[C@H](N)C(=O)N[C@@H](CS)C(=O)N[C@@H](Cc1ccc(O)cc1)C(=O)O [TP6, Ile-Cys-Tyr] (H-Ile-Cys-Tyr-OH)
GSH-Px level (H2O2-damaged HUVECs [2]; peptide 100 μM for 8 h): 42.69 ± 1.32 U/mg prot
GSH-Px level (H2O2-damaged HUVECs [2]; peptide 200 μM for 8 h): 51.28 ± 3.16 U/mg prot
SOD level (H2O2-damaged HUVECs [3]; peptide 100 μM for 8 h): 168.77 ± 5.32 U/mg prot
SOD level (H2O2-damaged HUVECs [3]; peptide 200 μM for 8 h): 184.06 ± 7.19 U/mg prot
cell viability of H2O2-damaged HUVECs (H2O2-damaged HUVECs [4]; 8 h, 200 μM): 69.76 ± 3.06%
ET-1 level (HUVECs [5]; [9]): 105.18 ± 3.29 pg/mL
ET-1 level (HUVECs [5]; peptide 200 μM): 92.57 ± 2.68 pg/mL
MDA level (H2O2-damaged HUVECs [6]; peptide 200 μM for 8 h): 17.08 ± 0.96 nmol/mg prot
NO level (HUVECs [7]; [9]): 42.21 ± 2.66 μmol/gprot
NO level (HUVECs [7]; peptide 200 μM): 50.63 ± 1.95 μmol/gprot

LGPLGHQ
IC50 on ACE (ACE; ACEi peptide from skate): 4220 µg/mL

N[C@@H](CCC(=O)N[C@@H](CS)C(=O)NCC(=O)O)C(=O)O [GSH, glutathione, reference compound]
cell viability of H2O2-damaged HUVECs (H2O2-damaged HUVECs [4]; GSH positive control (concentration not given), then H2O2 400 μM for 24 h, mean ± SD, n = 3): 75.69 ± 3.52%
MDA level (H2O2-damaged HUVECs [6]; GSH positive control (concentration not given)): 15.28 ± 0.61 nmol/mg prot

TP6, Ile-Cys-Tyr (ICY) (peptide)
ACEi activity (IC50): inhibition of ACE hydrolysis of FAPGG, absorbance at 340 nm, 37°C, pH 8.3 [8]: 0.48 mg/mL

MLVFAV
IC50 on ACE (ACE; ACEi peptide from Katsuwonus pelamis): 2360 µg/mL

LSFR [TP7, Leu-Ser-Phe-Arg (LSFR)]
ACEi activity (IC50): inhibition of ACE hydrolysis of FAPGG, absorbance at 340 nm, 37°C, pH 8.3 [8]: 0.59 mg/mL

IYSP [TP10, Ile-Tyr-Ser-Pro (IYSP)]
ACEi activity (IC50): inhibition of ACE hydrolysis of FAPGG, absorbance at 340 nm, 37°C, pH 8.3 [8]: 0.76 mg/mL

From publication PMC9355146, “Novel angiotensin-converting enzyme inhibitory peptides from tuna byproducts—milts: Preparation, characterization, molecular docking study, and antioxidant function on H2O2-damaged human umbilical vein endothelial cells” (Frontiers in Nutrition, 2022)
